Assay [1] deals with Cryphonectria parasitica. Nature of the assay: Fungicidal activity against Cryphonectria parasitica assessed as inhibition of fungal growth at 25 ug after 7 days. Type of assay: functional. The conditions noted are these: 168 h, read-out: DIZ.
In assay [2] the test system is Cryphonectria parasitica. The assay is described as follows: Fungicidal activity against Cryphonectria parasitica assessed as inhibition of fungal growth at 12.5 ug after 7 days. The conditions noted are these: 168 h, read-out: DIZ. Type of assay: functional.
Assay [3] deals with Cryphonectria parasitica. Nature of the assay: Fungicidal activity against Cryphonectria parasitica assessed as inhibition of fungal growth at 50 ug after 7 days. Type of assay: functional. The settings on record: 168 h, read-out: DIZ.
Assay [4] concerns Cryphonectria parasitica. The assay is described as follows: Fungicidal activity against Cryphonectria parasitica assessed as inhibition of fungal growth at 100 ug after 7 days. Type of assay: functional. The settings on record: 168 h, read-out: DIZ.
For the next assay, the system named is Rhizoctonia solani. Nature of the assay: Fungicidal activity against Rhizoctonia solani assessed as inhibition of fungal growth at 10 to 1000 mg/L. The class given is functional, organism-based.
In another assay the test system is Laetisaria fuciformis. The assay is described as follows: Fungicidal activity against Laetisaria fuciformis assessed as inhibition of fungal growth at 10 to 1000 mg/L. The class given is functional, organism-based.
The test system of the next assay is Magnaporthiopsis poae. Nature of the assay: Fungicidal activity against Magnaporthe poae assessed as inhibition of fungal growth at 10 to 1000 mg/L. Type of assay: functional, organism-based.

The source of these data is ChEMBL document CHEMBL3045451, “Isolation and characterization of fungal inhibitors from Epichloë festucae” (2000).

As for `COC(=O)c1c[nH]c2ccccc12`, the zone of inhibition at 25 µg/disc in the assay on Cryphonectria parasitica [1] came out at 6 mm. The zone of inhibition at 12.5 µg/disc with Cryphonectria parasitica [2] stood at 4 mm. For the same molecule, in the assay with Cryphonectria parasitica [3], the zone of inhibition at 50 µg/disc came to 8 mm. For the same molecule, the zone of inhibition at 100 µg/disc with Cryphonectria parasitica [4] was 11 mm.

Consider `O=C(O)Cc1c[nH]c2ccccc12` [INDOLE-3-ACETIC ACID], for which the “growth inhibition (GI)” value with Rhizoctonia solani, with Laetisaria fuciformis and in the assay on Magnaporthiopsis poae was “Dose-dependent effect” each time. The zone of inhibition at 25 µg/disc in the assay with Cryphonectria parasitica [1] was found to be 14 mm. For the same molecule, the zone of inhibition at 12.5 µg/disc in the assay with Cryphonectria parasitica [2] is 12 mm. Further, the zone of inhibition at 50 µg/disc in the assay with Cryphonectria parasitica [3] was 16 mm. Besides, the zone of inhibition at 100 µg/disc with Cryphonectria parasitica [4] was determined as 21 mm.

On to `CC(C)=CCC[C@@](C)(O)[C@H]1CC[C@](C)(O)[C@@H]1C` [CYCLONERODIOL], for which the zone of inhibition at 25 µg/disc in the assay on Cryphonectria parasitica [1] was found to be 0 mm. Besides, in the assay on Cryphonectria parasitica [2], the zone of inhibition at 12.5 µg/disc was found to be 0 mm. In addition, the zone of inhibition at 50 µg/disc in the assay with Cryphonectria parasitica [3] was 0 mm. Further, the zone of inhibition at 100 µg/disc in the assay with Cryphonectria parasitica [4] worked out at 13 mm.

Turning to `O=Cc1c[nH]c2ccccc12` [3-FORMYLINDOLE], the zone of inhibition at 25 µg/disc in the assay on Cryphonectria parasitica [1] stood at 10 mm. Moreover, the zone of inhibition at 12.5 µg/disc in the assay with Cryphonectria parasitica [2] came out at 7 mm. Also, in the assay on Cryphonectria parasitica [3], the zone of inhibition at 50 µg/disc is 13 mm. Also, in the assay on Cryphonectria parasitica [4], the zone of inhibition at 100 µg/disc amounted to 15 mm.

As for `OCCc1c[nH]c2ccccc12` [TRYPTOPHOL], the “growth inhibition (GI)” value in the assay with Rhizoctonia solani, in the assay on Laetisaria fuciformis and in the assay with Magnaporthiopsis poae was “Dose-dependent effect” each time. The zone of inhibition at 25 µg/disc with Cryphonectria parasitica [1] is 9 mm. The zone of inhibition at 12.5 µg/disc with Cryphonectria parasitica [2] stood at 7 mm. Also, the zone of inhibition at 50 µg/disc with Cryphonectria parasitica [3] came out at 11 mm. For the same molecule, in the assay with Cryphonectria parasitica [4], the zone of inhibition at 100 µg/disc was 14 mm.

As for `CC(=O)NC(C)=O` [DIACETAMIDE], the zone of inhibition at 25 µg/disc in the assay with Cryphonectria parasitica [1] came to 7 mm. The zone of inhibition at 12.5 µg/disc in the assay with Cryphonectria parasitica [2] worked out at 3 mm. For the same molecule, the zone of inhibition at 50 µg/disc in the assay on Cryphonectria parasitica [3] came to 10 mm. The zone of inhibition at 100 µg/disc in the assay with Cryphonectria parasitica [4] is 14 mm.
